From US20220287995A1, “COMPOSITIONS AND METHODS FOR INHIBITING BACTERIAL VIRULENCE AND FLIM-BASED DEVICE AND METHOD FOR ANTIBIOTIC SUSCEPTIBILITY TESTING” (THE REGENTS OF THE UNIVERSITY OF CALIFORNIA, priority 2019, published 2022)
Entries after “also recorded” stand apart in the source; their conditions may differ.

Key:
[1] = test system: surface-attached P. aeruginosa; assay: Image-based virulence (host killing) assay with amoeba host cells and calcein-AM; assay type: cell-based, Pseudomonas aeruginosa; conditions: for host-killing activity (host killing index): surface-attached wild-type P. aeruginosa in rich (PS:DB) medium, supplemented at 3 hours at 0.2%, assessed after 6 hours of growth, amoeba host cells
Experimental: P. aeruginosa cells were assayed using an image-based virulence assay as described previously (12, 50). P. aeruginosa strains were cultured in PS:DB, diluted 1:100 into 60×15 mm plastic petri dishes (Corning, Corning, N.Y.), cultured for 4 to 6 hours by shaking at 100 rpm, and harvested. Planktonic cells were assayed by transferring 10 μL of culture from the petri dish to a new petri dish, mixing with an equal volume of D. discoideum that were grown to an OD600 of 0.2-0.5, and immobilizing by placing an agar pad on top of the mixture (FIG. 11C). Agar pads were made using Bacto agar at a concentration of 1%, DB buffer, and 1 μM calcein acetoxymethyl (AM) ester (Molecular Probes, Eugene, Oreg.), and were cut into 1.5×1.5 cm squares (12, 50). Surface-attached cells were assayed by aspirating planktonic cells from the culture, washing with DB buffer to remove planktonic cells, mixing with an equal volume of D. discoideum, and immobilizing by placing an agar pad on top of the mixture (FIG. 11C) (50). The immobilized planktonic or surface-attached P. aeruginosa and D. discoideum were incubated at room temperature for 1 hour and imaged using fluorescence microscopy. The host killing index (12, 50) was computed as the average ratio of calcein-AM fluorescence to cell area in individual amoeba cells for 30 to 200 cells in each experiment.
Fluorescence microscopy to assess calcein-AM fluorescence was performed using a Nikon Eclipse Ti-E microscope (Nikon, Melville, N.Y.) containing Nikon 10× Plan Fluor Ph1 (0.3 NA) and 20×S Plan Fluor Nikon (0.45 NA) objectives, a Sola light engine (Lumencor, Beaverton, Oreg.), an LED-DA/FI/TX filter set (Semrock, Rochester, N.Y.) containing a 409/493/596 dichroic and 474/27 nm and 525/45 nm filters for excitation and emission, respectively, and a Hamamatsu Orca Flash 4.0 V2 camera (Hamamatsu, Bridgewater, N.J.). Images were acquired using Nikon NIS-Elements and analyzed using custom built software written previously (12) in Matlab (Mathworks, Natick, Mass.).
For experiments in which strains cultured in PS:DB were supplemented with individual carbon sources (FIG. 5A-D), pyruvic acid, citric acid, […], glycerol, or glucose was added to cultures at a final concentration of 0.2% at 3 hours following a 1:100 dilution from an overnight culture. Cultures were harvested after 1 additional hour of growth for measurements of fluorescence lifetime and NADH and NAD^+ concentrations. For experiments in which surface-attached strains that were cultured in PS:DB media were treated with antimycin A (FIG. 5E-F), 10 μM antimycin A dissolved in 0.1% ethanol, 0.1% ethanol, alone, or 10 μM antimycin A dissolved in 0.1% ethanol and 0.2% citric acid were added after 3 hours of growth following a 1:100 dilution from an overnight culture. Host killing was measured after an additional 1 to 3 hours of growth (total of 4 to 6 hours of growth).

P. aeruginosa = assay: Colorimetric enzyme-cycling assay of NADH and NAD+ concentrations; assay type: cell-based, Pseudomonas aeruginosa; conditions: for NADH/NAD+ ratio / total concentrations of NADH and NAD+ / change in NADH/NAD+ ratio / change in total NAD(H) production: surface-attached; for NADH/NAD+ ratio / total concentrations of NADH and NAD+: mid-exponential phase; for change in NADH/NAD+ ratio / change in total NAD(H) production: rich (PS:DB) medium, carbon source 0.2% added at 3 hours, harvested after 1 additional hour
Experimental: The concentrations of reduced and oxidized nicotinamide adenine dinucleotide (NADH, NAD^+) were measured using a colorimetric enzyme-cycling assay as described previously (45). P. aeruginosa strains were cultured overnight in PS:DB, diluted 1:100 into 60×15 mm plastic petri dishes (Corning, Corning, N.Y.) containing the same medium, and grown for 4 to 6 hours. Alternatively, strains were cultured overnight in minimal medium, diluted 1:100 into plastic petri dishes containing modified minimal medium with single carbon sources, and grown to an OD600 of 0.2. Cultures were harvested in a glove box chamber (Bel-Art, Wayne, N.J.) that had been vacuumed to remove air and flushed with nitrogen constantly throughout the experiment to prevent oxidation of NADH. Subsequent steps were performed and solutions were prepared in the glove box unless otherwise indicated. Solutions containing 0.05 to 1 μM of NADH (Sigma) or NAD^+ (Sigma) were included as calibration controls.
Planktonic cells were isolated from petri dishes, pelleted by centrifugation at 16,000×g for 1 min, the residual supernatant was discarded and the pellet was immediately resuspended in 0.2 M NaOH or HCl to extract NADH or NAD^+, respectively, as described previously (45, 46). Surface-attached cells were harvested by aspirating planktonic cells from petri dishes, washing with DB buffer or modified minimal medium with no carbon source for strains cultured in PS:DB or modified minimal medium A containing single carbon sources, respectively, adding 0.2 M NaOH or HCl, and scraping surfaces with a cell scraper (Sarstedt, Nümbrecht, Germany). As a control, the Δphz12 strain was cultured overnight in modified MOPS synthetic medium (46), diluted 1:100 in the same medium in culture tubes for 1 to 4 hours, pelleted by centrifugation, resuspended in 0.2 M NaOH or HCl, as described previously (46). The resuspensions in NaOH or HCl were neutralized using equal volume of 0.1 M HCl or NaOH, respectively, and portions were assayed for protein content, NADH, and NAD^+. Resuspensions were assayed for protein content using a BCA assay kit (ThermoFisher Scientific, Waltham, Mass.) using a 50:1 mixture of solutions A and B from the kit. Solutions were incubated at 37° C. for 30 min and measured for absorbance at 562 nm. Resuspensions that were not used for the BCA assay were normalized by protein content by diluting in Millipore-filtered water.
NADH and NAD^+ concentrations were determined by following the protocol described previously (45). Briefly, normalized resuspensions were centrifuged at 16,000×g for 10 minutes at 4° C. to remove cell debris and mixed with a reaction mixture containing 40 mM EDTA, 1 M bicine (Sigma), 4.2 mM 3-(4,5-dimethylthiazol-2-yl)-2,5-diphenyltetrazolium bromide (Sigma), 16.6 mM phenazine ethosulfate (Sigma), 1 mg/mL alcohol dehydrogenase (Sigma), and ethanol, and the absorbance at 570 nm of the solution was measured in a 96-well plate (Corning Corning, N.Y.) at 30° C. every 30 seconds for 30 minutes using a BioTek Synergy HTX reader (BioTek, Winooski, Vt.). The reaction mixture and the normalized resuspensions were aliquoted and mixed inside the glove box. The centrifugation and absorbance measurements were performed outside of the glove box. The absorbance per unit time was determined by fitting data on the initial velocity of enzyme activity, acquired between 2 to 10 minutes of the absorbance measurements. The absorbances per unit time for the NADH and NAD^+ calibration controls were linearly fit for the full range of calibration concentrations to establish a linear equation that relates the absorbance per unit time and NAD(H) concentration. The NAD(H) concentrations of the planktonic and surface-attached cell resuspensions were determined by inputting the respective absorbance per unit time fits of the samples into these equations. […]

[2] = planktonic cells, modified minimal medium, single carbon source at 0.2%
[3] = modified minimal medium, single carbon source at 0.2%

| Structure (SMILES) | effect on the earlier virulence induction by antimycin A ([1]; co-treatment at 3 hours with 0.2% citrate and 10 μM antimycin A in 0.1% ethanol, surface-attached) | host-killing activity (host killing index) [1] | NAD(H) concentration relative to glycerol (P. aeruginosa; [2]) | NADH/NAD+ ratio relative to glycerol (P. aeruginosa; [2]) | NADH/NAD+ ratio (P. aeruginosa; [3]) | total concentrations of NADH and NAD+ (P. aeruginosa; [3]) | change in NADH/NAD+ ratio (P. aeruginosa) | change in total NAD(H) production (P. aeruginosa) |
| --- | --- | --- | --- | --- | --- | --- | --- | --- |
| O=C(O)CC(O)(CC(=O)O)C(=O)O [citrate] | inhibited | inhibited virulence; also recorded: abolished host-killing activity | slightly lower | slightly greater | increasing ratios | intermediate | greatest increases | greatest decreases; also recorded: decreased |
| OCC(O)CO [glycerol] |  | no effect on host-killing activity |  |  | increasing ratios | intermediate | smallest changes | relatively small impacts |
